This is an account of results in ChEMBL document CHEMBL1201862, “PubChem BioAssay data set” (2004).

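Dose response: 5 concentrations. Exposure: 48 h. Format: 96-well plates. Endpoint: linear interpolation; highest concentration if not reached. GI50 = concentration required for 50% inhibition of growth.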 Active and inactive are the calls of the source. Cut-off read from the data, not from the text of the source: active = GI50 up to about 1.1 µM and inactive = higher.

Some test systems named below: OVCAR-8; MDA-MB-435; MOLT-4; NCI-H522; Malme-3M; 786-0; UO-31; SF-539; HCT-116; KM12; SN12C; UACC-62; HOP-62; MDA-N; A549; SNB-19; SF-268; MDA-MB-231; RPMI-8226; CAKI-1.
What all share (assay): DTP human tumour cell line panel, 48 h

`O=C1CC(c2cccc(F)c2)Nc2cc3c(cc21)OCO3` (stereo not given): the GI50 was 0.0568 µM (active) with OVCAR-8; 0.0136 µM (active) in the experiment on MDA-MB-435; < 0.01 µM (active) with MOLT-4; 0.0208 µM (active) in the experiment with NCI-H522; 0.0327 µM (active) with Malme-3M; 0.0468 µM (active) in the experiment on 786-0. Also, the GI50 in the experiment with UO-31 is 0.0422 µM (active); with SF-539 it was 0.0293 µM (active); with HCT-116 it was 0.0533 µM (active); in the experiment on KM12 it was 0.0463 µM (active); in the experiment on SN12C, 0.0509 µM (active); with UACC-62, 0.0543 µM (active). In addition, the GI50 with HOP-62 is 7.38 µM (inactive); in the experiment with MDA-N it was 0.0113 µM (active); with A549 it was 0.0363 µM (active); in the experiment on SNB-19, 0.0365 µM (active); in the experiment on SF-268 it was 0.0914 µM (active); with MDA-MB-231, 0.149 µM (active). Besides, the GI50 in the experiment on RPMI-8226 is < 0.01 µM (active); with CAKI-1, 0.051 µM (active).
Take `NC1(C(=O)O)CCCC1C(=O)O` (stereo not given): the GI50 in the experiment on OVCAR-8, in the experiment with MDA-MB-435, in the experiment with MOLT-4, with NCI-H522, in the experiment on Malme-3M and in the experiment with 786-0 was > 100 µM (inactive) each time. In addition, the GI50 in the experiment on UO-31, with SF-539, with HCT-116, in the experiment on KM12, with SN12C and with UACC-62 was > 100 µM (inactive) each time. Also, the GI50 with HOP-62, in the experiment with MDA-N, with A549, in the experiment on SNB-19, in the experiment with SF-268 and in the experiment on MDA-MB-231 was > 100 µM (inactive) throughout. Also, the GI50 in the experiment with RPMI-8226 and in the experiment with CAKI-1 was > 100 µM (inactive) each time.

For orientation: GI50 means the concentration that inhibits growth by half.
